# Results published in patent publication US7425551B2, “Malonamide derivatives” (Hoffmann-La Roche Inc., priority 2006, dated 2008).
# Target: T1, γ-secretase (Homo sapiens, UniProt P49768)
# T1 construct: uses a HEK293 membrane fraction as a source of γ-secretase; endogenous in cells; host or cells: HEK293 (microsomal membrane fraction, solubilised in 0.25% CHAPSO)
# Assay: in vitro assay of γ-secretase activity (HEK293 membrane fraction, recombinant APP substrate, Abeta ELISA)
# Format: biochemical
# Details: γ-secretase inhibition; HEK293 membrane fraction solubilized in 0.25% CHAPSO, recombinant human APP C-terminal 100 amino acids substrate, Abeta detected by ELISA
# From the text: Description of 1γ-Secretase Assay The activity of test compounds can be evaluated in assays which measure the proteolytic cleavage of suitable substrates by γ-secretase activity. These can be cellular assays where e.g., a substrate of the γ-secretase is fused in its cytoplasmic domain to a transcription factor. Cells are transfected with this fusion gene and a reporter gene, e.g., firefly luciferase, which expression is enhanced by the transcription factor. Cleavage of the fused substrate by γ-secretase will lead to expression of the reporter gene which can be monitored in appropriate assays. The γ-secretase activity can also be determined in cell-free in vitro assays where e.g., a cell lysate containing the γ-secretase complex is incubated with a suitable APP-derived substrate which is cleaved to the Abeta peptides. The amount of produced peptides can be determined with specific ELISA assays. Cell lines of neuronal origin secrete Abeta peptides which can be measured with the specific ELISA assay. Treatment with compounds which inhibit γ-secretase leads to a reduction of secreted Abeta thus providing a measure of inhibition. The in vitro assay of γ-secretase activity uses a HEK293 membrane fraction as a source of γ-secretase and a recombinant APP substrate. Latter consist of the C-terminal 100 amino acids of human APP fused to a 6× Histidin tail for purification which is expressed in E. coli in a regulatable expression vector, e.g. pEt15. This recombinant protein corresponds to the truncated APP fragment which results after […] of the extracellular domain and which constitutes the γ-secretase substrate. The assay principle is described in Li Y M et al, PNAS 97(11), 6138-6143 (2000). Hek293 cells are mechanically disrupted and the microsomal fraction is isolated by differential centrifugation. The membranes are solubilized in detergent (0.25% CHAPSO) and incubated with the APP substrate. The Abeta peptides which are produced by γ-secretase cleavage of the substrate are detected by specific ELISA assays as described (Brockhaus M et al, Neuroreport 9(7), 1481-1486 (1998).
row,IC50 [nM],Structure (SMILES)
1,4,"CCOC(C(=O)NCC(F)(F)C(F)(F)F)C(=O)N[C@@H]1C(=O)N(CCO)c2ccccc2-c2ccccc21 (stereo partly drawn) [Example 17, 2-Ethoxy-N—[(S)-5-(2-hydroxy-ethyl)-6-oxo-6,7-dihydro-5H-dibenzo[b,d]azepin-7-yl]-N′-(2,2,3,3,3-pentafluoro-propyl)-malonamide]"
2,2,"C[C@@](F)(C(=O)NCC(F)(F)C(F)(F)F)C(=O)N[C@@H]1C(=O)N(CCOCc2ccccc2)c2ccccc2-c2ccccc21 [Example 22, (R)—N—[(S)-5-(2-Benzyloxy-ethyl)-6-oxo-6,7-dihydro-5H-dibenzo[b,d]azepin-7-yl]-2-fluoro-2-methyl-N′-(2,2,3,3,3-pentafluoro-propyl)-malonamide]"
3,16,"C[C@](F)(C(=O)NCC(F)(F)C(F)(F)F)C(=O)N[C@@H]1C(=O)N(CCOCc2ccccc2)c2ccccc2-c2ccccc21 [Example 23, (S)—N—[(S)-5-(2-Benzyloxy-ethyl)-6-oxo-6,7-dihydro-5H-dibenzo[b,d]azepin-7-yl]-2-fluoro-2-methyl-N′-(2,2,3,3,3-pentafluoro-propyl)-malonamide]"
4,34,"COCCN1C(=O)[C@@H](NC(=O)CC(=O)NCC(F)(F)C(F)(F)F)c2ccccc2-c2ccccc21 [Example 24, N—[(S)-5-(2-Methoxy-ethyl)-6-oxo-6,7-dihydro-5H-dibenzo[b,d]azepin-7-yl]-N′-(2,2,3,3,3-pentafluoro-propyl)-malonamide]"
5,6,"COCCN1C(=O)[C@@H](NC(=O)[C@H](C)OC(=O)NCC(F)(F)C(F)(F)F)c2ccccc2-c2ccccc21 [Example 25, (2,2,3,3,3-Pentafluoro-propyl)-carbamic acid (S)-1-[(S)-5-(2-methoxy-ethyl)-6-oxo-6,7-dihydro-5H-dibenzo[b,d]azepin-7-ylcarbamoyl]-ethyl ester]"
6,1,"C[C@@](F)(C(=O)NCC(F)(F)C(F)(F)F)C(=O)N[C@@H]1C(=O)N(CCO)c2ccccc2-c2ccccc21 [Example 26, (R)-2-Fluoro-N—[(S)-5-(2-hydroxy-ethyl)-6-oxo-6,7-dihydro-5H-dibenzo[b,d]azepin-7-yl]-2-methyl-N′-(2,2,3,3,3-pentafluoro-propyl)-malonamide]"
7,4,"C[C@](F)(C(=O)NCC(F)(F)C(F)(F)F)C(=O)N[C@@H]1C(=O)N(CCO)c2ccccc2-c2ccccc21 [Example 27, (S)-2-Fluoro-N—[(S)-5-(2-hydroxy-ethyl)-6-oxo-6,7-dihydro-5H-dibenzo[b,d]azepin-7-yl]-2-methyl-N′-(2,2,3,3,3-pentafluoro-propyl)-malonamide]"
8,68,"O=C(CC(=O)N[C@@H]1C(=O)N(CCOCc2ccccc2)c2ccccc2-c2ccccc21)NCCC(F)(F)F [Example 28, N—[(S)-5-(2-Benzyloxy-ethyl)-6-oxo-6,7-dihydro-5H-dibenzo[b,d]azepin-7-yl]-N′-(3,3,3-trifluoro-propyl)-malonamide]"
9,18,"O=C(CC(=O)N[C@@H]1C(=O)N(CCOCc2ccccc2)c2ccccc2-c2ccccc21)NCCC(F)(F)C(F)(F)F [Example 29, N—[(S)-5-(2-Benzyloxy-ethyl)-6-oxo-6,7-dihydro-5H-dibenzo[b,d]azepin-7-yl]-N′-(3,3,4,4,4-pentafluoro-butyl)-malonamide]"
10,75,"O=C(CC(=O)N[C@@H]1C(=O)N(CCO)c2ccccc2-c2ccccc21)NCCC(F)(F)F [Example 30, N—[(S)-5-(2-Hydroxy-ethyl)-6-oxo-6,7-dihydro-5H-dibenzo[b,d]azepin-7-yl]-N′-(3,3,3-trifluoro-propyl)-malonamide]"
11,200,"O=C(CC(=O)N[C@@H]1C(=O)N(CCO)c2ccccc2-c2ccccc21)NCCC(F)(F)C(F)(F)F [Example 31, N—[(S)-5-(2-Hydroxy-ethyl)-6-oxo-6,7-dihydro-5H-dibenzo[b,d]azepin-7-yl]-N′-(3,3,4,4,4-pentafluoro-butyl)-malonamide]"
12,18,"COCCN1C(=O)[C@@H](NC(=O)[C@@](C)(F)C(=O)NCC(F)(F)C(F)(F)F)c2ccccc2-c2ccccc21 [Example 32, (S)-2-Fluoro-N—[(S)-5-(2-methoxy-ethyl)-6-oxo-6,7-dihydro-5H-dibenzo[b,d]azepin-7-yl]-2-methyl-N′-(2,2,3,3,3-pentafluoro-propyl)-malonamide]"
13,4,"COCCN1C(=O)[C@@H](NC(=O)[C@](C)(F)C(=O)NCC(F)(F)C(F)(F)F)c2ccccc2-c2ccccc21 [Example 33, (R)-2-Fluoro-N—[(S)-5-(2-methoxy-ethyl)-6-oxo-6,7-dihydro-5H-dibenzo[b,d]azepin-7-yl]-2-methyl-N′-(2,2,3,3,3-pentafluoro-propyl)-malonamide]"
14,4,"COCCN1C(=O)[C@@H](NC(=O)C(C)(O)C(=O)NCC(F)(F)C(F)(F)F)c2ccccc2-c2ccccc21 (stereo partly drawn) [Example 34, 2-Hydroxy-N—[(S)-5-(2-methoxy-ethyl)-6-oxo-6,7-dihydro-5H-dibenzo[b,d]azepin-7-yl]-2-methyl-N′-(2,2,3,3,3-pentafluoro-propyl)-malonamide]"
15,22,"C[C@H](OC(=O)NCCC(F)(F)F)C(=O)N[C@@H]1C(=O)N(CCOCc2ccccc2)c2ccccc2-c2ccccc21 [Example 35, (3,3,3-Trifluoro-propyl)-carbamic acid (S)-1-[(S)-5-(2-benzyloxy-ethyl)-6-oxo-6,7-dihydro-5H-dibenzo[b,d]azepin-7-ylcarbamoyl]-ethyl ester]"
16,13,"C[C@H](OC(=O)NCCC(F)(F)C(F)(F)F)C(=O)N[C@@H]1C(=O)N(CCOCc2ccccc2)c2ccccc2-c2ccccc21 [Example 36, (3,3,4,4,4-Pentafluoro-butyl)-carbamic acid (S)-1-[(S)-5-(2-benzyloxy-ethyl)-6-oxo-6,7-dihydro-5H-dibenzo[b,d]azepin-7-ylcarbamoyl]-ethyl ester]"
17,18,"C[C@H](OC(=O)NCC(F)(F)F)C(=O)N[C@@H]1C(=O)N(CCOCc2ccccc2)c2ccccc2-c2ccccc21 [Example 37, (2,2,2-Trifluoro-ethyl)-carbamic acid (S)-1-[(S)-5-(2-benzyloxy-ethyl)-6-oxo-6,7-dihydro-5H-dibenzo[b,d]azepin-7-ylcarbamoyl]-ethyl ester]"
18,16,"C[C@H](OC(=O)NCCC(F)(F)F)C(=O)N[C@@H]1C(=O)N(CCO)c2ccccc2-c2ccccc21 [Example 39, (3,3,3-Trifluoro-propyl)-carbamic acid (S)-1-[(S)-5-(2-hydroxy-ethyl)-6-oxo-6,7-dihydro-5H-dibenzo[b,d]azepin-7-ylcarbamoyl]-ethyl ester]"
19,5,"C[C@@](F)(C(=O)NCCC(F)(F)C(F)(F)F)C(=O)N[C@@H]1C(=O)N(CCOCc2ccccc2)c2ccccc2-c2ccccc21 [Example 40, (R)—N—[(S)-5-(2-Benzyloxy-ethyl)-6-oxo-6,7-dihydro-5H-dibenzo[b,d]azepin-7-yl]-2-fluoro-2-methyl-N′-(3,3,4,4,4-pentafluoro-butyl)-malonamide]"
20,480,"C[C@H](OC(=O)NCCF)C(=O)N[C@@H]1C(=O)N(CCOCc2ccccc2)c2ccccc2-c2ccccc21 [Example 41, (2-Fluoro-ethyl)-carbamic acid (S)-1-[(S)-5-(2-benzyloxy-ethyl)-6-oxo-6,7-dihydro-5H-dibenzo[b,d]azepin-7-ylcarbamoyl]-ethyl ester]"
21,1,"C[C@@](F)(C(=O)NCCC(F)(F)C(F)(F)F)C(=O)N[C@@H]1C(=O)N(CCO)c2ccccc2-c2ccccc21 [Example 42, (R)-2-Fluoro-N—[(S)-5-(2-hydroxy-ethyl)-6-oxo-6,7-dihydro-5H-dibenzo[b,d]azepin-7-yl]-2-methyl-N′-(3,3,4,4,4-pentafluoro-butyl)-malonamide]"
22,13,"C[C@](F)(C(=O)NCC(F)(F)F)C(=O)N[C@@H]1C(=O)N(CCOCc2ccccc2)c2ccccc2-c2ccccc21 [Example 43, (S)—N—[(S)-5-(2-Benzyloxy-ethyl)-6-oxo-6,7-dihydro-5H-dibenzo[b,d]azepin-7-yl]-2-fluoro-2-methyl-N′-(2,2,2-trifluoro-ethyl)-malonamide]"
23,9,"C[C@](F)(C(=O)NCCC(F)(F)C(F)(F)F)C(=O)N[C@@H]1C(=O)N(CCOCc2ccccc2)c2ccccc2-c2ccccc21 [Example 44, (S)—N—[(S)-5-(2-Benzyloxy-ethyl)-6-oxo-6,7-dihydro-5H-dibenzo[b,d]azepin-7-yl]-2-fluoro-2-methyl-N′-(3,3,4,4,4-pentafluoro-butyl)-malonamide]"
24,755,"C[C@H](OC(=O)NCCF)C(=O)N[C@@H]1C(=O)N(CCO)c2ccccc2-c2ccccc21 [Example 47, (2-Fluoro-ethyl)-carbamic acid (S)-1-[(S)-5-(2-hydroxy-ethyl)-6-oxo-6,7-dihydro-5H-dibenzo[b,d]azepin-7-ylcarbamoyl]-ethyl ester]"
